Patent US20230202997A1, “CHROMANOL, QUINONE OR HYDROQUINONE COMPOUNDS FOR TREATMENT OF SEPSIS” (Sulfateq B.V., priority 2020, published 2023)

Legend:
IL-6 mRNA expression [1] = assay: Inhibition of LPS-induced IL-6 mRNA expression in HUVEC; format: cell-based, Human; conditions: 10 μM for 30 min, then LPS 24 hours
Procedure: (§1) Human Umbilical Cord Endothelial Cells (HUVEC, Lonza CC-2519) were maintained on 1% gelatin-coated culture flasks in RPMI1640 medium containing 20% fetal bovine serum, 2 mM Glutamine (Sigma-Aldrich), 1% Penicillin-Streptomycin solution (Sigma-Aldrich) and 50 μg/ml Bovine Pituitary Extract (Invitrogen). HUVEC were passaged by trypsinization when the cultures reach a confluency of 70%. For all experiments, HUVEC were seeded at 0.6·10^5 cells/cm^2 and allowed to adhere for 24 hours.
(§2) HUVEC and NRK52E cells were pre-incubated with SUL compounds (10 μM) for 30 min and subsequently exposed to LPS for 24 hours under standard culture conditions. Cells were lysed in triZOL reagens (Invitrogen) and total RNA isolated according to manufacturers' instruction. 1 μg total RNA per sample was reverse transcribed using the FirstAid Reverse Transcription Kit (ThermoFisher). Copy-DNA equivalents of 5 ng total RNA were amplified on a ViiA7 Real-time PCR system (ThermoFisher, Waltham, Mass.) using iTaq Universal SYBR Green Supermix (Bio-Rad, Hercules, Calif.) and primers specific for tumor necrosis factor alpha, interleukin 1 beta, interleukin-6 and beta actin as loading control. Amplification was performed for 40 cycles of 95° C. for 30 s, 60° C. for 1 min. Relative mRNA expression was calculated as 2^−(Cq^gene^−Cq^reference^) and normalized to unstimulated control cells (100% inhibition) and vehicle-treated and LPS exposed cells (0% inhibition). The following primers were used: […]

TNFα mRNA expression [2] = assay: Inhibition of LPS-induced TNFα mRNA expression in HUVEC; format: cell-based, Human; conditions: 10 μM for 30 min, then LPS 24 hours
Procedure: as §1, §2

IL-1β mRNA expression [3] = assay: Inhibition of LPS-induced IL-1β mRNA expression in HUVEC; format: cell-based, Human; conditions: 10 μM for 30 min, then LPS 24 hours
Procedure: as §1, §2

IL-6 mRNA expression [4] = assay: Inhibition of LPS-induced IL-6 mRNA expression in NRK52E; format: cell-based, Rat; conditions: 10 μM for 30 min, then LPS 24 hours
Procedure: (§3) Rat kidney epithelial cells (ATCC #CRL-1571) were maintained in DMEM medium containing 10% fetal bovine serum, and 1% Penicillin-Streptomycin solution (Sigma-Aldrich). NRK52E cells were passaged by trypsinization when the cultures reached a confluency of 70%. For all experiments, NRK52E cells were seeded at 0.6·10^5 cells/cm^2 and allowed to adhere for 24 hours.
as §2

IL-1β mRNA expression [5] = assay: Inhibition of LPS-induced IL-1β mRNA expression in NRK52E; format: cell-based, Rat; conditions: 10 μM for 30 min, then LPS 24 hours
Procedure: as §3, §2

TNFα mRNA expression [6] = assay: Inhibition of LPS-induced TNFα mRNA expression in NRK52E; format: cell-based, Rat; conditions: 10 μM for 30 min, then LPS 24 hours
Procedure: as §3, §2

NO production in HUVEC = assay: Endothelial NO production (nitrate in conditioned medium), basal and after LPS; format: cell-based, Human
Procedure: as §1
Cellular production of NO was approximated by measuring nitrate concentrations in culture media using the Measure-IT™ High-Sensitivity Nitrite Assay Kit (#M36051, ThermoFisher) according to manufacturer's instructions. […] Therefore, nitrate concentrations in conditioned media are a good approximate to assess cellular NO production. 50 μl conditioned medium derived from a single 96-wells plate well was used per assay and normalized against protein concentration. All experiments were performed in quadruplicate.
Endotoxins suppress endothelial NO production by limiting the activity of eNOS. HUVEC were pre-treated with vehicle (DMSO), BN-80933, SUL-138, or SUL-150 or (all 10 μM) prior to endotoxin (LPS 100 ng/ml) exposure for 24 hours. The nitrate levels in the conditioned medium from endothelial cells exposed to LPS averaged at 160 pmol/mg protein (˜33% reduction versus non LPS exposed HUVEC, p=0.002), which was lower than basal control levels. BN-80933 further suppressed the nitrate levels in the conditioned medium (FIG. 7A) to an average of 90 pmol/mg protein (p=0.008).

IL-1β mRNA expression [7] = assay: Endothelial inflammatory activation after endotoxin, IL-1β mRNA (Example 5); format: cell-based, Human; conditions: HUVEC; 10 μM for 30 min
Procedure: as §1
(§4) HUVEC cells were lysed in triZOL reagens (Invitrogen) and total RNA isolated according to manufacturers' instruction. 1 μg total RNA per sample was reverse transcribed using the FirstAid Reverse Transcription Kit (ThermoFisher). Copy-DNA equivalents of 5 ng total RNA were amplified on a ViiA7 Real-time PCR system (ThermoFisher, Waltham, Mass.) using iTaq Universal SYBR Green Supermix (Bio-Rad, Hercules, Calif.) and primers specific for tumor necrosis factor alpha (TNFα; sense 5′-[…]-3′, antisense 5′-[…]-3′), interleukin 1 beta (IL-1β; sense 5′-[…]-3′, antisense 5′-[…]-3′), interleukin-6 (IL-6; sense 5′-[…]-3′, antisense 5′-[…]-3′) and beta actin (ACTB; sense 5′-[…]-3′, antisense 5′-[…]-3′) as loading control. Amplification was performed for 40 cycles of 95° C. for 30 s, 60° C. for 1 min. Relative mRNA expression was calculated according to the δδCt-method.

IL-6 mRNA expression [8] = assay: Endothelial inflammatory activation after endotoxin, IL-6 mRNA (Example 5); format: cell-based, Human; conditions: HUVEC; 10 μM for 30 min
Procedure: as §1, §4

TNFα mRNA expression [9] = assay: Endothelial inflammatory activation after endotoxin, TNFα mRNA (Example 5); format: cell-based, Human; conditions: HUVEC; 10 μM for 30 min
Procedure: as §1, §4

HUVEC = assay: Cell viability after hypothermia-rewarming stress (Neutral Red); format: cell-based, Human; conditions: 10 μM for 1 hour, 4° C. for 24 hours followed by 37° C. for 3 hours
Procedure: as §1
HUVEC were pre-treated with BN-80933, SUL-138 or SUL-150 (all 10 μM) for 1 hour in a humidified incubator at 37° C. Following pre-treatment, HUVEC were placed in a cold room (2-8° C.) for 24 hours and subsequently placed back at 37° C. for a 3 hour rewarming period. After 1 hour of rewarming, cell culture medium was replaced by prewarmed and filtered 0.4 mg/mL Neutral Red (#N463 8, Sigma-Aldrich) in culture medium. After the remaining 2 hour rewarming period, HUVEC were washed with PBS and NRU was solubilized in 100 μL resorption solution (50% ethanol, 1% ascetic acid in dH2O). The absorbance was measured at a wavelength of 550 nm on a BioTek ELx808 plate reader. The recorded OD550 nm values were normalized to control samples that were maintained at 37° C. at all times, which were assumed to be 100% viable.

[10] = tested on: NO production in RAW264.7 macrophages; assay: Macrophage NO production (nitrate in conditioned medium), basal and after LPS; format: cell-based, Mouse
Procedure: Mouse macrophage RAW264.7 cells (ATCC #TIB-71) were maintained in DMEM medium containing 10% fetal bovine serum, and 1% Penicillin-Streptomycin solution (Sigma-Aldrich). […] For all experiments, RAW264.7 cells were seeded at 0.5·10^5 cells/cm^2 and allowed to adhere for 24 hours. Cellular production of NO was approximated by measuring nitrate concentrations in culture media using the Measure-IT™ High-Sensitivity Nitrite Assay Kit (#M36051, ThermoFisher) according to manufacturer's instructions. […] Therefore, nitrate concentrations in conditioned media are a good approximate to assess cellular NO production. 50 μl conditioned medium derived from a single 96-wells plate well was used per assay and normalized against protein concentration. All experiments were performed in quadruplicate. LPS induces macrophage NO production by activating iNOS. RAW264.7 macrophages were pre-treated with vehicle (DMSO), BN-80933, SUL-138, or SUL-150 or (all 10 μM) prior to endotoxin (LPS 100 ng/ml) exposure for 24 hours. The nitrate levels in the conditioned medium from LPS exposed RAW264.7 macrophages averaged at 83 pmol/mg protein (˜16-fold increase versus non-exposed RAW264.7 cells, p=0.001).

[11] = tested on: cytoplasmic oxidative stress in HUVEC; assay: LPS-induced cellular superoxide in HUVEC (DHE); format: cell-based, Human; conditions: 10 μM for 30 min, LPS 100 ng/ml 24 hours
Procedure: as §1
(§5) The production of cellular and mitochondrial oxidative stress was measured using fluorescent probes for cellular and mitochondrial superoxide, i.e. dihydroethidium (DHE) and MitoSox (ThermoFisher), respectively. HUVEC were incubated with BN-80933, SUL-138 or SUL-150 (all 10 μM) for 30 min. Next, HUVEC were exposed to LPS (100 ng/ml) for an additional 24 hours. In the final hour of incubation, 2.5 μM of DHE or MitoSox was applied to each sample. HUVEC were washed in PBS and fixed in 4% paraformaldehyde at room temperature for 15 min. Nuclear staining was performed by 5 μM […] (DAPI) and fluorescence intensity of the samples was recorded in a CLARIOStar Plus plate reader (BMG Labtech) equipped with the appropriate filter sets. Fluorescence recordings for DHE and MitoSox were corrected for DAPI fluorescence. All experiments were performed in quadruplicate.

[12] = tested on: mitochondrial oxidative stress in HUVEC; assay: LPS-induced mitochondrial superoxide in HUVEC (MitoSox); format: cell-based, Human; conditions: 10 μM for 30 min, LPS 100 ng/ml 24 hours
Procedure: as §1, §5

[13] = 10 μM pre-treatment, LPS 100 ng/ml for 24 hours

Compound | inhibition of LPS-induced mRNA expression of IL-6 (IL-6 mRNA expression [1]) | inhibition of LPS-induced mRNA expression of TNFα (TNFα mRNA expression [2]) | inhibition of LPS-induced mRNA expression of IL-1β (IL-1β mRNA expression [3]) | inhibition of LPS-induced mRNA expression of IL-6 (IL-6 mRNA expression [4]) | inhibition of LPS-induced mRNA expression of IL-1β (IL-1β mRNA expression [5]) | inhibition of LPS-induced mRNA expression of TNFα (TNFα mRNA expression [6]) | also measured
Cc1c(C)c(O)c(CC[C@@](C)(O)C(=O)N2CCN(CCO)CC2)c(C)c1O [SUL-138M2, 4-(2,5-dihydroxy-3,4,6-trimethylphenyl)-2-hydroxy-1-(4-(2-hydroxyethyl)piperazin-1-yl)-2-methylbutan-1-one] | 55.2 ± 8.5 % | 58.1 ± 3.1 % | 51.7 ± 8.0 % | – | – | – | –
Cc1c(C)c2c(c(C)c1O)CCC(C)(C(=O)NCc1ccccc1)O2 (stereo not shown) [SUL-96, N-benzyl-6-hydroxy-2,5,7,8-tetramethyl-3,4-dihydro-2H-1-benzopyran-2-carboxamide] | – | – | – | 89.9 ± 5.8 % | 81.7 ± 7.2 % | 85.4 ± 4.7 % | –
COC(=O)CNC(=O)C1(C)CCc2c(C)c(O)c(C)c(C)c2O1 (stereo not shown) [SUL-99, methyl [(6-hydroxy-2,5,7,8-tetramethyl-3,4-dihydro-2H-1-benzopyran-2-carbonyl)amino]acetate, reference compound] | 32.7 ± 8.1 % | 35.1 ± 6.2 % | 31.5 ± 4.5 % | – | – | – | –
Cc1c(C)c2c(c(C)c1O)CC[C@@](C)(C(=O)N1CCN(c3ccc(NC(=N)c4cccs4)cc3)CC1)O2 [BN-80933, reference compound] | – | – | – | – | – | – | nitrate levels in the conditioned medium after LPS (NO production in HUVEC; [13]): 90 pmol/mg protein; suppression of basal endothelial NO production (nitrate in conditioned medium) (NO production in HUVEC; no LPS, 10 μM): ~38%; LPS-induced mRNA expression of IL-1β (IL-1β mRNA expression [7]): does not preclude the LPS-induced mRNA expression of the interleukins IL-1β and IL-6; LPS-induced mRNA expression of IL-6 (IL-6 mRNA expression [8]): does not preclude the LPS-induced mRNA expression of the interleukins IL-1β and IL-6; LPS-induced mRNA expression of TNFα (TNFα mRNA expression [9]): precludes the induction of mRNA expression of the pro-inflammatory cytokine TNFα; reduction in cell viability versus normothermic control cells (HUVEC): ~55%; LPS-induced increase in extracellular nitrate level [10, 13]: blunted the LPS-induced increase in extracellular nitrate level; basal production of extracellular nitrate ([10]; no LPS, 10 μM): Neither BN-80933, SUL-138, nor SUL-150 affected the basal production of extracellular nitrate; LPS-induced cytoplasmic oxidative stress (DHE) [11]: mitigates the induction of cytoplasmic oxidative stress; LPS-induced mitochondrial oxidative stress (MitoSox) [12]: not affected by the pre-treatment with BN-80933
Cc1c(C)c2c(c(C)c1O)CCC(C)(C(=O)N[C@H](CO)c1ccccc1)O2 (stereo partly drawn) [SUL-129, 6-hydroxy-N-[(1S)-2-hydroxy-1-phenylethyl]-2,5,7,8-tetramethyl-3,4-dihydro-2H-1-benzopyran-2-carboxamide] | – | – | – | 69.2 ± 2.6 % | 75.9 ± 7.1 % | 75.6 ± 6.4 % | –
Cc1c(C)c2c(c(C)c1O)CCC(C)(C(=O)Nc1ccccc1)O2 (stereo not shown) [SUL-103, 6-hydroxy-2,5,7,8-tetramethyl-N-phenyl-3,4-dihydro-2H-1-benzopyran-2-carboxamide] | – | – | – | 63.3 ± 1.4 % | 59.2 ± 7.9 % | 67.8 ± 7.8 % | –
Cc1c(C)c2c(c(C)c1O)CC[C@@](C)(C(=O)N[C@@H]1CCCNC1)O2 [SUL-13, (2S)-6-hydroxy-2,5,7,8-tetramethyl-N-((R)-piperidin-3-yl)-3,4-dihydro-1-benzopyran-2-carboxamide] | 45.7 ± 9.1 % | 41.2 ± 8.2 % | 38.6 ± 4.2 % | – | – | – | –
Cc1c(C)c2c(c(C)c1O)CCC(C)(C(N)=O)O2 (stereo not shown) [SUL-89, 6-hydroxy-2,5,7,8-tetramethyl-3,4-dihydro-2H-1-benzopyran-2-carboxamide, reference compound] | – | – | – | 8.7 ± 4.6% | 12.3 ± 6.4% | 17.5 ± 3.4% | –
